Reference: patent publication US11260049B2, “TRPV4 antagonists” (GlaxoSmithKline Intellectual Property (No. 2) Limited, priority 2016, dated 2022)

Target: human TRPV4 (Homo sapiens (Human), UniProt Q9HBA0)
Assay: FLIPR assay for hTRPV4 expressed in BHK cells
Assay type: cell-based
Settings: inhibition of Agonist Compound (EC80)-induced calcium signal; BHK/AC9 cells expressing human TRPV4; read-out: IC50
Protocol: FLIPR Assay for hTRPV4 Expressed in BHK Cells:
TRPV4 channel activation results in an influx of divalent and monovalent cations including calcium. The resulting changes in intracellular calcium were monitored using a calcium specific fluorescent dye Fluo-4 (MDS Analytical Technologies). BHK/AC9 cells transduced with BacMam virus expressing the human TRPV4 gene at a MOI of 78 were plated in a 384 well poly-D lysine coated plate (15,000 cells/well in 50 μL culture medium containing DMEM/F12 with 15 mM HEPES, 10% FBS, 1% Penicillin-Streptomycin and 1% L-glutamine). Cells were incubated for 24 hours at 37° C. and 5% CO2. Culture medium was then aspirated using a Tecan plate-washer and replaced with 20 μL/well of dye loading buffer: HBSS, 500 μM Brilliant Black (MDS Analytical Technologies), and 2 μM Fluo-4 AM. Dye loaded plates were then incubated in the dark at room temperature for 1˜1.5 hours.

Chain of human TRPV4 (Q9HBA0 whole entry): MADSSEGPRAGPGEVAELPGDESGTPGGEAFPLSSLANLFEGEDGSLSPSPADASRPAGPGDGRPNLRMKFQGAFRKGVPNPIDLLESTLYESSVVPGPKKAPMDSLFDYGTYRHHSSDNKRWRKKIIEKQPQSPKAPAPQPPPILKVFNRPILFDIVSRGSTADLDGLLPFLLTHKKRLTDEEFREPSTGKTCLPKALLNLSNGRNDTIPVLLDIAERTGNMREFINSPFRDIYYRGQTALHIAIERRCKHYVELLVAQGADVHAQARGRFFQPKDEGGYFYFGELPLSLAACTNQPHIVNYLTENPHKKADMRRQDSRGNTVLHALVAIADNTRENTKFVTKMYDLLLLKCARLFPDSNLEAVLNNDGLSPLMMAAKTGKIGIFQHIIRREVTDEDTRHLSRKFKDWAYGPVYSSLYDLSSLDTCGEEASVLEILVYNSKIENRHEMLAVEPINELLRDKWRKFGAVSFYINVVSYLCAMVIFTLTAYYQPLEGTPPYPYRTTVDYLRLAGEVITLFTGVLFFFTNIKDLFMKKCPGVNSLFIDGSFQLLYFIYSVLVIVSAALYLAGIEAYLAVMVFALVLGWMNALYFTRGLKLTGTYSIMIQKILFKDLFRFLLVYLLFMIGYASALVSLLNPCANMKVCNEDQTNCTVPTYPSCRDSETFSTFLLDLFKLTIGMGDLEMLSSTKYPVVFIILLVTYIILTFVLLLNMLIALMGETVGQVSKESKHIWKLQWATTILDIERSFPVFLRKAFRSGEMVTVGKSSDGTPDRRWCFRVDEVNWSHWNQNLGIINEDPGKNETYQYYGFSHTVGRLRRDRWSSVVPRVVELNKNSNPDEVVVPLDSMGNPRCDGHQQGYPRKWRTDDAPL

Row | SMILES | IC50 [nM]
1 | N#Cc1ccc(S(=O)(=O)[C@H]2CN(S(=O)(=O)c3ccc(F)cc3C(F)(F)F)C[C@@]2(O)CO)cc1 [Example 29, 4-(((3S,4R)-1-((4-fluoro-2-(trifluoromethyl)phenyl)sulfonyl)-4-hydroxy-4-(hydroxymethyl)pyrrolidin-3-yl)sulfonyl)benzonitrile] | 0.1 to 10
2 | N#Cc1ccc(S(=O)(=O)[C@H]2CN(S(=O)(=O)c3ccc(Br)cc3C(F)(F)F)C[C@@]2(O)CO)cc1 [Example 30, 4-(((3S,4R)-1-((4-bromo-2-(trifluoromethyl)phenyl)sulfonyl)-4-hydroxy-4-(hydroxymethyl)pyrrolidin-3-yl)sulfonyl)benzonitrile] | 0.1 to 10
3 | COc1ccc(S(=O)(=O)N2C[C@H](S(=O)(=O)c3ccc(C#N)cc3)[C@](O)(CO)C2)c(C(F)(F)F)c1 [Example 31, 4-(((3S,4R)-4-hydroxy-4-(hydroxymethyl)-1-((4-methoxy-2-(trifluoromethyl)phenyl)sulfonyl)pyrrolidin-3-yl)sulfonyl)benzonitrile] | 10 to 100
4 | N#Cc1ccc(S(=O)(=O)[C@H]2CN(S(=O)(=O)c3ccc(C(F)(F)F)cc3Br)C[C@@]2(O)CO)cc1 [Example 32, 4-(((3S,4R)-1-((2-bromo-4-(trifluoromethyl)phenyl)sulfonyl)-4-hydroxy-4-(hydroxymethyl)pyrrolidin-3-yl)sulfonyl)benzonitrile] | 10 to 100
5 | N#Cc1ccc(S(=O)(=O)[C@H]2CN(S(=O)(=O)c3ccccc3Br)C[C@@]2(O)CO)cc1 [Example 33, 4-(((3S,4R)-1-((2-bromophenyl)sulfonyl)-4-hydroxy-4-(hydroxymethyl)pyrrolidin-3-yl)sulfonyl)benzonitrile] | 10 to 100
6 | N#Cc1ccc(S(=O)(=O)[C@H]2CN(S(=O)(=O)c3ccc(Br)cc3Cl)C[C@@]2(O)CO)cc1 [Example 34, 4-(((3S,4R)-1-((4-bromo-2-chlorophenyl)sulfonyl)-4-hydroxy-4-(hydroxymethyl)pyrrolidin-3-yl)sulfonyl)benzonitrile] | 0.1 to 10
7 | COc1cc(C#N)ccc1S(=O)(=O)N1C[C@H](S(=O)(=O)c2ccc(Cl)cc2)[C@](O)(CO)C1 [Example 35, 4-(((3R,4S)-4-((4-chlorophenyl)sulfonyl)-3-hydroxy-3-(hydroxymethyl)pyrrolidin-1-yl)sulfonyl)-3-methoxybenzonitrile] | 0.1 to 10
8 | N#Cc1ccc(S(=O)(=O)[C@H]2CN(S(=O)(=O)c3ccc(C(F)(F)F)cc3F)C[C@@]2(O)CO)cc1 [Example 36, 4-(((3S,4R)-1-((2-fluoro-4-(trifluoromethyl)phenyl)sulfonyl)-4-hydroxy-4-(hydroxymethyl)pyrrolidin-3-yl)sulfonyl)benzonitrile] | 10 to 100
9 | O=S(=O)(c1ccc(Cl)cc1)[C@H]1CN(S(=O)(=O)c2ccc(C(F)F)cc2Cl)C[C@@]1(O)CO [Example 37, (3R,4S)-1-((2-chloro-4-(difluoromethyl)phenyl)sulfonyl)-4-((4-chlorophenyl)sulfonyl)-3-(hydroxymethyl)pyrrolidin-3-ol] | 10 to 100
10 | N#Cc1ccc(S(=O)(=O)N2C[C@H](S(=O)(=O)c3ccc(Cl)cc3)[C@](O)(CO)C2)c(Br)c1 [Example 38, 3-bromo-4-(((3R,4S)-4-((4-chlorophenyl)sulfonyl)-3-hydroxy-3-(hydroxymethyl)pyrrolidin-1-yl)sulfonyl)benzonitrile] | 0.1 to 10
11 | N#Cc1ccc(S(=O)(=O)N2C[C@H](S(=O)(=O)c3ccc(C(F)(F)F)nc3)[C@](O)(CO)C2)c(Br)c1 [Example 39, 3-bromo-4-(((3R,4S)-3-hydroxy-3-(hydroxymethyl)-4-((6-(trifluoromethyl)pyridin-3-yl)sulfonyl)pyrrolidin-1-yl)sulfonyl)benzonitrile] | 10 to 100
12 | N#Cc1cc(Cl)ccc1S(=O)(=O)N1C[C@H](S(=O)(=O)c2ccc(C(F)(F)F)nc2)[C@](O)(CO)C1 [Example 40, 5-chloro-2-(((3R,4S)-3-hydroxy-3-(hydroxymethyl)-4-((6-(trifluoromethyl)pyridin-3-yl)sulfonyl)pyrrolidin-1-yl)sulfonyl)benzonitrile] | 10 to 100
13 | N#Cc1ccc(S(=O)(=O)[C@H]2CN(S(=O)(=O)c3ccccc3C(F)(F)F)C[C@@]2(O)CO)cc1 [Example 41, 4-(((3S,4R)-4-hydroxy-4-(hydroxymethyl)-1-((2-(trifluoromethyl)phenyl)sulfonyl)pyrrolidin-3-yl)sulfonyl)benzonitrile] | 10 to 100
14 | N#Cc1ccc(S(=O)(=O)[C@H]2CN(S(=O)(=O)c3ccc(C(F)F)cc3Cl)C[C@@]2(O)CO)cc1 [Example 42, 4-(((3S,4R)-1-((2-chloro-4-(difluoromethyl)phenyl)sulfonyl)-4-hydroxy-4-(hydroxymethyl)pyrrolidin-3-yl)sulfonyl)benzonitrile] | 10 to 100
15 | O=S(=O)(c1ccc(Cl)cc1)[C@H]1CN(S(=O)(=O)c2ccc(CF)cc2Cl)C[C@@]1(O)CO [Example 43, (3R,4S)-1-((2-chloro-4-(fluoromethyl)phenyl)sulfonyl)-4-((4-chlorophenyl)sulfonyl)-3-(hydroxymethyl)pyrrolidin-3-ol] | 10 to 100
16 | N#Cc1ccc(S(=O)(=O)[C@H]2CN(S(=O)(=O)c3ccc(CF)cc3Cl)C[C@@]2(O)CO)cc1 [Example 44, 4-(((3S,4R)-1-((2-chloro-4-(fluoromethyl)phenyl)sulfonyl)-4-hydroxy-4-(hydroxymethyl)pyrrolidin-3-yl)sulfonyl)benzonitrile] | 10 to 100
17 | N#Cc1ccc(S(=O)(=O)[C@H]2CN(S(=O)(=O)c3ccc(C#N)cc3Cl)C[C@@]2(O)CO)cc1 [Example 45, 3-chloro-4-(((3R,4S)-4-((4-cyanophenyl)sulfonyl)-3-hydroxy-3-(hydroxymethyl)pyrrolidin-1-yl)sulfonyl)benzonitrile] | 0.1 to 10
18 | CCc1cc(C#N)ccc1S(=O)(=O)N1C[C@H](S(=O)(=O)c2ccc(Cl)cc2)[C@](O)(CO)C1 [Example 46, 4-(((3R,4S)-4-((4-chlorophenyl)sulfonyl)-3-hydroxy-3-(hydroxymethyl)pyrrolidin-1-yl)sulfonyl)-3-ethylbenzonitrile] | 10 to 100
19 | N#Cc1ccccc1S(=O)(=O)N1C[C@H](S(=O)(=O)c2ccc(Cl)cc2)[C@](O)(CO)C1 [Example 47, 2-(((3R,4S)-4-((4-chlorophenyl)sulfonyl)-3-hydroxy-3-(hydroxymethyl)pyrrolidin-1-yl)sulfonyl)benzonitrile] | 10 to 100
20 | N#Cc1ccc(S(=O)(=O)N2C[C@H](S(=O)(=O)c3ccc(Cl)cc3)[C@](O)(CO)C2)c(C(F)F)c1 [Example 48, 4-(((3R,4S)-4-((4-chlorophenyl)sulfonyl)-3-hydroxy-3-(hydroxymethyl)pyrrolidin-1-yl)sulfonyl)-3-(difluoromethyl)benzonitrile] | 0.1 to 10
21 | CCOc1cc(C#N)ccc1S(=O)(=O)N1C[C@H](S(=O)(=O)c2ccc(Cl)cc2)[C@](O)(CO)C1 [Example 49, 4-(((3R,4S)-4-((4-chlorophenyl)sulfonyl)-3-hydroxy-3-(hydroxymethyl)pyrrolidin-1-yl)sulfonyl)-3-ethoxybenzonitrile] | 10 to 100
22 | N#Cc1ccc(S(=O)(=O)N2C[C@H](S(=O)(=O)c3ccc(Cl)cc3)[C@](O)(CO)C2)c(OC2CC2)c1 [Example 50, 4-(((3R,4S)-4-((4-chlorophenyl)sulfonyl)-3-hydroxy-3-(hydroxymethyl)pyrrolidin-1-yl)sulfonyl)-3-cyclopropoxybenzonitrile] | 10 to 100
23 | COc1cc(Cl)ccc1S(=O)(=O)N1C[C@H](S(=O)(=O)c2ccc(C#N)cc2)[C@](O)(CO)C1 [Example 51, 4-(((3S,4R)-1-((4-chloro-2-methoxyphenyl)sulfonyl)-4-hydroxy-4-(hydroxymethyl)pyrrolidin-3-yl)sulfonyl)benzonitrile] | 10 to 100
24 | COc1cc(Br)ccc1S(=O)(=O)N1C[C@H](S(=O)(=O)c2ccc(C#N)cc2)[C@](O)(CO)C1 [Example 52, 4-(((3S,4R)-1-((4-bromo-2-methoxyphenyl)sulfonyl)-4-hydroxy-4-(hydroxymethyl)pyrrolidin-3-yl)sulfonyl)benzonitrile] | 10 to 100
25 | N#Cc1ccccc1S(=O)(=O)N1C[C@H](S(=O)(=O)c2ccc(C(F)(F)F)cc2)[C@](O)(CO)C1 [Example 53, 2-(((3R,4S)-3-hydroxy-3-(hydroxymethyl)-4-((4-(trifluoromethyl)phenyl)sulfonyl)pyrrolidin-1-yl)sulfonyl)benzonitrile] | 10 to 100
26 | N#Cc1ccc(S(=O)(=O)N2C[C@H](S(=O)(=O)c3ccc(C(F)(F)F)cc3)[C@](O)(CO)C2)c(Cl)c1 [Example 54, 3-chloro-4-(((3R,4S)-3-hydroxy-3-(hydroxymethyl)-4-((4-(trifluoromethyl)phenyl)sulfonyl)pyrrolidin-1-yl)sulfonyl)benzonitrile] | 0.1 to 10
27 | N#Cc1ccc(S(=O)(=O)N2C[C@H](S(=O)(=O)c3ccc(C(F)(F)F)cc3)[C@](O)(CO)C2)c(C(F)F)c1 [Example 55, 3-(difluoromethyl)-4-(((3R,4S)-3-hydroxy-3-(hydroxymethyl)-4-((4-(trifluoromethyl)phenyl)sulfonyl)pyrrolidin-1-yl)sulfonyl)benzonitrile] | 0.1 to 10
28 | COc1cc(C#N)ccc1S(=O)(=O)N1C[C@H](S(=O)(=O)c2ccc(C(F)(F)F)cc2)[C@](O)(CO)C1 [Example 56, 4-(((3R,4S)-3-hydroxy-3-(hydroxymethyl)-4-((4-(trifluoromethyl)phenyl)sulfonyl)pyrrolidin-1-yl)sulfonyl)-3-methoxybenzonitrile] | 10 to 100
